Assay results: US11786570B2, “Dermatological product” (SYMRISE AG, priority 2018, dated 2023)
“Also recorded” adds a separate entry of the source. Marks after values point to notes of the source that are not given here.

How the values were obtained:
[1] = tested on: human sebaceous glands; assay: Total lipid (sebum) content of micro-dissected ex vivo human sebaceous glands in organ culture, lipids normalized on proteins; type: cell-based; conditions: for Reduction of lipids at day 6 versus untreated; Total lipid reduction: Example 4; for Reduction of lipids at day 6 versus untreated; Lipid reduction: Example 8; for Effect on total lipid / sebum content of sebaceous glands, in words: day 6
Experimental: Organ culture of human sebaceous glands micro-dissected from human skin explants was performed to evaluate the modulatory activity of Tetraselmis suecica extract prepared according to the description given in Example 1 on the sebum level. The extract is employed in the dried form.
(§1) After removal of the epidermis of the full thickness skin sample, the sebaceous glands were carefully removed using micro-scissors and scalpel. The micro-dissected sebaceous glands were then pooled in groups of 8 and cultured up to day 6 in a 24 well plate immersed in 500 μl of modified Williams'E medium. After 24 hours of acclimation the culture medium was changed and substituted with the medium containing the extract to be tested. The medium was renewed at day 3 and 5 of culture. At day 6 the glands were collected and used for the quantification of lipids and proteins.
To do so, each sebaceous glands group was homogenized in 100 μl of isopropyl alcohol to extract lipids and let the proteins undissolved. After centrifugation the supernatant containing the extracted sebum was collected and analyzed. The remaining pellet was dried using a vacuum dry evaporator and then minced in presence of 50 μl of protein lysis buffer. After an appropriate incubation time, this extractive mixture was centrifuged, and the supernatant was collected and analyzed. The lipids dissolved in isopropyl alcohol and the proteins dissolved in the lysis buffer were quantified by infrared spectroscopy using a Direct Detect IR Spectrometer (Millipore). The total lipid amount was obtained by normalizing the quantified lipids upon the quantified proteins (i.e. mg of lipids/mg of proteins). The amounts of normalized lipids, i.e. the sebum produced by each group of sebaceous glands, obtained from the treated groups was compared to that of the untreated control group and the modulatory activity was calculated in percentage. As positive control, a 5 μM Capsaicin treatment was included in the experimental design. Capsaicin is an active component of chili peppers suitable to inhibit sebogenesis [T6th et al., J. Invest. Derm. (2009), 129: 329-339]. For statistical analysis, differences among groups were evaluated by one-way anova with permutation test followed by Dunnett's permutation test.
To evaluate donor responsiveness and interindividual variability the extract was tested on sebaceous glands obtained from skin samples of three different donors.
The Organ culture of human sebaceous glands micro-dissected from human skin explants was performed to evaluate the modulatory activity of mannitol on the sebum level.
as §1, with “sample” for “extract”
To do so, each sebaceous glands group was homogenized in 100 μl of isopropyl alcohol to extract lipids and let the proteins undissolved. After centrifugation the supernatant containing the extracted sebum was collected and analyzed. The remaining pellet was dried using a vacuum dry evaporator and then minced in presence of 50 μl of protein lysis buffer. After an appropriate incubation time, this extractive mixture was centrifuged, and the supernatant was collected and analyzed. The lipids dissolved in isopropyl alcohol and the proteins dissolved in the lysis buffer were quantified by infrared spectroscopy using a Direct Detect IR Spectrometer (Millipore). The total lipid amount was obtained by normalizing the quantified lipids upon the quantified proteins (i.e. mg of lipids/mg of proteins). […]

[2] = tested on: human sebaceous glands; assay: Resazurin viability test of micro-dissected human sebaceous glands, day 6 versus day 1; type: cell-based
Experimental: To better understand the response to the extract, a viability test was performed in parallel at day 1 and day 6 of organ culture. Resazurin was added to the wells (1:11) and let incubate for 2 hours. At the end of the incubation an aliquot of the medium was read with a fluorometer (excitation: 560 nm, emission: 590 nm). The medium was then replaced with normal medium for 2 hours in order to eliminate residual resazurin. After this the medium was replaced again with medium containing the test samples. The viability in each well was measured as the difference in percentage between day 6 and day 1.

[3] = tested on: CLDN7 [Claudin 7]; assay: Gene expression by RT-qPCR in nHEK keratinocytes; type: cell-based, human
Experimental: Neonatale humane epidermal keratinocytes (nHEK) were cultivated in EpiLife medium (Gibco) including HKGS-Kit (Gibco) at 5% CO2 at 37° C. according to the supplier instructions. […] Genomic target expression levels in extract treated cells were measured by RT-qPCR comparing to medium treatment. RNA isolation took place using RNeasy® Mini Kit, Qiagen. Total RNA concentrations were measured using μCuvetteG 1.0 and BioPhotometer, Eppendorf by measuring the absorption at 260 nm. Purity control values, like […]/280 and E 260/230 were calculated simultaneously. Reverse transcription was done using high capacity RNA-to-cDNA Kit, Applied Biosystems, according to the supplier instructions. Samples were treated in the PCR Thermocycler, Biometra. For the fast real-time PCR, cDNA was diluted with RNase-free water and TaqManTM Fast Universal PCR Master Mix, Applied biosystems. Quantitaive Real-Time PCR was done using StepOne Plus Fast Real Time PCR Instrument, Applied biosystems. Analysis was done with StepOne-Software and 2-ΔCT Method (normalized to endogenous control HTRP1 expression).

[4] = tested on: CGN [Cingulin]; assay: Gene expression by RT-qPCR in nHEK keratinocytes; type: cell-based, human; conditions: 0.002%
Experimental: (§2) Neonatale humane epidermal keratinocytes (nHEK) were cultivated in EpiLife medium (Gibco) including HKGS-Kit (Gibco) at 5% CO2 at 37° C. according to the supplier instructions.
(§3) […] Genomic target expression levels in extract treated cells were measured by RT-qPCR comparing to medium treatment.
(§4) RNA isolation took place using RNeasy® Mini Kit, Qiagen. Total RNA concentrations were measured using μCuvetteG 1.0 and BioPhotometer, Eppendorf by measuring the absorption at 260 nm. Purity control values, like E260/280 and E 260/230 were calculated simultaneously. Reverse transcription was done using high capacity RNA-to-cDNA Kit, Applied Biosystems, according to the supplier instructions. Samples were treated in the PCR Thermocycler, Biometra.
(§5) For the fast real-time PCR, cDNA was diluted with RNase-free water and TaqMan™ Fast Universal PCR Master Mix, Applied biosystems. Quantitaive Real-Time PCR was done using StepOne Plus Fast Real Time PCR Instrument, Applied biosystems. Analysis was done with StepOne-Software and 2-ΔCT Method (normalized to endogenous control HTRP1 expression).
(§6) For upregulations RQ values ≥2.0 and for downregulations RQ values <0.5 are considered to be relevant.

[5] = tested on: CLDN1 [Claudin 1]; assay: Gene expression by RT-qPCR in nHEK keratinocytes; type: cell-based, human; conditions: 0.002%
Experimental: as §2, §3, §4, §5, §6

[6] = tested on: OCLN [Occludin]; assay: Gene expression by RT-qPCR in nHEK keratinocytes; type: cell-based, human; conditions: 0.002%
Experimental: as §2, §3, §4, §5, §6

[7] = Water solubility (statement); type: physicochemical

Compound	Reduction of lipids at day 6 versus untreated ([1]; Example 6, 0.05 ppm) [%]	Reduction of lipids at day 6 versus untreated ([1]; Example 6, 0.5 ppm) [%]	Effect on total lipid / sebum content of sebaceous glands, in words ([1]; ex vivo human sebaceous glands)	Viability ([2]; Example 6, 0.05 ppm) [%]	Viability ([2]; Example 6, 0.5 ppm) [%]	Reduction of lipids at day 6 versus untreated ([1]; Example 7, 0.05 ppm) [%]	Reduction of lipids at day 6 versus untreated ([1]; Example 7, 0.5 ppm) [%]	Viability ([2]; Example 7, 0.05 ppm) [%]	Viability ([2]; Example 7, 0.5 ppm) [%]	further results
COc1cc(CNC(=O)CCCC/C=C/C(C)C)ccc1O [Capsaicin, reference compound]										Reduction of lipids at day 6 versus untreated; Total lipid reduction ([1]; 5 μM (1.5 ppm)): −25%; Reduction of lipids at day 6 versus untreated ([1]; Example 6, 5 μM (1.5 ppm)): −21%; Reduction of lipids at day 6 versus untreated ([1]; Example 7, 5 μM (1.5 ppm)): −20%; Reduction of lipids at day 6 versus untreated; Lipid reduction ([1]; 5 μM (1.5 ppm)): 13* %; Viability ([2]; Example 3, Donor 1, 5 μM (1.5 ppm)): 92%; Viability ([2]; Example 3, Donor 2, 5 μM (1.5 ppm)): 99%; Viability ([2]; Example 3, Donor 3, 5 μM (1.5 ppm)): 85%; Viability ([2]; Example 4, 5 μM (1.5 ppm)): 82%; Viability ([2]; Example 6, 5 μM (1.5 ppm)): 89%; Viability ([2]; Example 7, 5 μM (1.5 ppm)): 91%; Viability ([2]; Example 8, 5 μM (1.5 ppm)): 95%
OC[C@@H](O)[C@@H](O)CO [erythritol, meso-Erythritol]	−26	−36	significantly reduces the lipid content	82	77					
O[C@H]1[C@H](O)[C@@H](O)[C@H](O)[C@@H](O)[C@H]1O [inositol, myo-Inosiitol]			significantly reduce the lipid content			−32	−10	91	97	
OC[C@@H](O)[C@@H](O[C@@H]1O[C@H](CO)[C@H](O)[C@H](O)[C@H]1O)[C@H](O)[C@@H](O)CO [lactitol, Lactitol]			significantly reduce the lipid content			−22	−22	99	100	
OC[C@@H](O)[C@@H](O[C@H]1O[C@H](CO)[C@@H](O)[C@H](O)[C@H]1O)[C@H](O)[C@@H](O)CO [maltitol, Maltitol]			significantly reduce the lipid content			−44	−39	79	80	
OC[C@@H](O)[C@@H](O)[C@H](O)[C@H](O)CO [mannitol, Mannitol]			significantly reduces the lipid content; also recorded: significantly reduced the sebum content							Reduction of lipids at day 6 versus untreated; Total lipid reduction ([1]; 0.03 ppm): −17%; Sebum/lipid reducing efficacy compared with positive control 5 μM capsaicin, in words ([1]; ex vivo human sebaceous glands): less effectively than 5 μM capsaicin; Viability ([2]; Example 4, 0.03 ppm): 81%; claudin 7 gene regulation, in words [3]: upregulate; RQ value ([3]; 0.002%): 2.0; RQ value [4]: 1.0; RQ value [5]: 0.5; RQ value [6]: 1.0
NC(=O)c1cccnc1 [niacinamide, Niacinamide, reference compound]			did not show a relevant lipid reducing activity							Reduction of lipids at day 6 versus untreated; Lipid reduction ([1]; 0.5 ppm): 2%; Viability ([2]; Example 8, 0.5 ppm): 100%; water solubility, in words [7]: readily water soluble
OC[C@@H](O)[C@@H](O)[C@H](O)[C@@H](O)CO [sorbitol, D-Sorbitol]	−16	−40	significantly reduces the lipid content	80	78					Reduction of lipids at day 6 versus untreated; Lipid reduction ([1]; 0.5 ppm): 11* %; Effect on total lipid / sebum content of sebaceous glands, in words ([1]; ex vivo human sebaceous glands, listed as Sorbitol): exhibited efficacy in the expected range when compared to capsaicin; Viability ([2]; Example 8, 0.5 ppm): 95%
OC[C@@H](O)[C@H](O)CO [threitol, D-Threitol]			significantly reduce the lipid content			−31	−47	84	82	
OC[C@@H](O)[C@H](O)[C@@H](O)CO [xylitol, Xylitol]	−23	−46	significantly reduces the lipid content	86	80					
